Data taken from publication PMC12391391, “The balance between B55α and Greatwall expression levels predicts sensitivity to Greatwall inhibition in cancer cells” (Nature Communications, 2025).
Like-named read-outs stand apart in the source and are kept apart here.

Key:
physchem = assay: physchem; parameters: aqueous solubility at pH 7.0; conditions: pH 7.0; buffer pH 7.0; aqueous buffer pH 7.0
From the text: (§1) We selected compound 1 as the lead exemplar of cluster 3 and leveraged it as a foundation for subsequent drug development (Fig. 1a). Structure-activity relationship studies and pharmacokinetic profiling produced several derivative molecules, of which compound 21 provided the best combination of outstanding inhibitory potential, low clearance in mouse microsomes and acceptable solubility (Fig. 1a–c and Supplementary Tables 1–4). […] This assessment was supported by structural modelling of the interaction between compound 21 and the active site of GWL (Fig. 1d). In further support of its GWL-targeting properties, compound 21 diminished the phosphorylation of the canonical GWL substrate ENSA(S67) in Xenopus laevis cytostatic factor (CSF) egg extract (Supplementary Fig. 2). Having satisfied the criteria of prospective GWL inhibitor, the racemic compound 21 was registered as UOS-00054604 and, for the remainder of the manuscript, is referred to as C-604.

in vitro [1] = assay: in vitro; parameters: intrinsic clearance in human microsomes; conditions: liver microsomes; human liver microsomes; read-out: Cl (human)
From the text: as §1

in vitro [2] = assay: in vitro; parameters: intrinsic clearance in mouse microsomes; conditions: liver microsomes; mouse liver microsomes
From the text: as §1

## CNC(=O)c1c[nH]c2ncc(-c3ccc(OCCN4CCC(c5ccccc5)C4)cc3)nc12 (racemic) [compound 21, C-604]
physchem
  solubility: 72 µM
In vitro [1]
  microsomal CLint: 13 µL/min/mg
In vitro [2]
  microsomal CLint: 24 µL/min/mg
